Measured values taken from patent EP0307071B1, “Flavor and fragrance enhancing enzymes” (YISSUM RESEARCH DEVELOPMENT COMPANY OF THE HEBREW …, priority 1987, dated 1989).
Like-named read-outs stand apart in the source and are kept apart here.

Target: T1, Aspergillus niger B1 endo-β-glucosidase B1 (strain CMI CC 324626) preparation (Aspergillus niger, UniProt A2RAL4)
T1 sequence (A2RAL4 20-860): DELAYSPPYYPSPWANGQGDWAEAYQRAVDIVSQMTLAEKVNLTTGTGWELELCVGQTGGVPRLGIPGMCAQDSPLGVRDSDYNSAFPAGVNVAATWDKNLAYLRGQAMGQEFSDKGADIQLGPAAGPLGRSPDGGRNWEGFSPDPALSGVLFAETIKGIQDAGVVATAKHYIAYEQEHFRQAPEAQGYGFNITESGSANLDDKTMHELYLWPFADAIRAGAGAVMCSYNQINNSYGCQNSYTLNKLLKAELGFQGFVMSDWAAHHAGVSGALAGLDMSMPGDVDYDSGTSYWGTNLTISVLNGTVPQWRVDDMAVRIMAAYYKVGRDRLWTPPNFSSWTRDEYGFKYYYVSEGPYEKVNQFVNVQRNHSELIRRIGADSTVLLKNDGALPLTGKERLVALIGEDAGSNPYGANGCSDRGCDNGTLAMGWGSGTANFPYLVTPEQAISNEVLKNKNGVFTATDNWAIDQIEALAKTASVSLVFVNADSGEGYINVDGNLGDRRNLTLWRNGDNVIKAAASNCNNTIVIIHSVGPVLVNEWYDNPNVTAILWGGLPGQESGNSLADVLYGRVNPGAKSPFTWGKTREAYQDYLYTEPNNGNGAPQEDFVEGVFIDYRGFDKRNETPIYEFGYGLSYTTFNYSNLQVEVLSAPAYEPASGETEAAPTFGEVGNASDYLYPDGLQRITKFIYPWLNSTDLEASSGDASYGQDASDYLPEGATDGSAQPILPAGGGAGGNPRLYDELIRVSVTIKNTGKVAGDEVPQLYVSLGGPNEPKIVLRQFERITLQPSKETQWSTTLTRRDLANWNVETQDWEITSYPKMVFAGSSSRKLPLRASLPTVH
Test: β-glucosidase kinetics and inhibition by standard procedures (PNPG or geranyl β rutinoside as substrates)
Assay type: biochemical, Aspergillus niger B1 strain CMI CC 324626
Conditions: remaining enzyme activity
Description: The concentrations of free and bound monoterpenes are preferably determined according to the method of Dimitriadis et. al. (Amer J. Enol. Vitic. 35:66-71 (1984) which reference is herein incorporated by reference). The activity of the endo-β-glucosidase of the present invention is preferably determined by standard methods using either PNPG or geranyl beta rutinoside as substrates.
The β-glucosidase activity was assayed by incubating 25 µl of enzyme preparation in 1 ml of 1 mM PNPG (p-nitrophenyl-β-D-glucopyranoside) for 2 minutes at 35°. The reaction was terminated by adding 200 µl of 1M Na2CO3 and the OD was read at 399 nm.
The supernatant and the filtered samples were then separately incubated with 20 ml of 1 mg/l of wine glycosides for 20 hours at 30°. Free monoterpenes were then analyzed according to Dimitriadis et al. (Amer J. Enol. Vitic. 35:66-71 (1984)). Characterization of the A. niger B1 β-glucosidase B1 activity included the determination of pH, ionic strength, temperature, and ethanol response curves, Km, Vmax and Ki for glucose, by standard procedures. In addition, the effect of various concentrations of grape juice (Muscat of Alexandria) sucrose, fructose and SO2 on the enzyme activity was determined by conventional methods. […]

## O=C(CO)[C@@H](O)[C@H](O)[C@H](O)CO [Fructose, fructose]
1M Fructose, read-out: Activity in the presence of 1M Fructose
  activity at 1 M: 90%

## OC[C@H]1O[C@@](CO)(O[C@H]2O[C@H](CO)[C@@H](O)[C@H](O)[C@H]2O)[C@@H](O)[C@@H]1O [sucrose]
1M sucrose, read-out: Activity in the presence of 1M sucrose
  activity at 1 M: 90%

## SO2
200ppm SO2
  Activity in the presence of 200ppm SO2: 100%
